{"source": "patent US6440440B1", "about": "“Biocidal benzylbiphenyl derivatives” (priority 1998, dated 2002)", "type_in_all_cases": "cell-based", "key": {"Escherichia coli": {"tested_on": "Escherichia coli", "experiment": "Primary bacteria screening", "set-up": "key: score: 3 = complete inhibition of growth, 2 = growth partially controlled", "details": "test compound concentration 500 μMol in tryptose broth agar, 27° C.", "protocol": "(§1) The stock solutions with the test compounds were pipetted into multiwell plates and mixed with warm tryptose broth agar (2.6%) in order to reach a test compound concentration of 500 μMol. The medium was allowed to cool and subsequently inoculated with the bacteria. Wells were placed in an incubator at 27° C. and a relative humidity of 70%. After sufficient growth of the untreated cultures, the test was evaluated.\n(§2) 3: complete inhibition of bacterial growth\n(§3) 2: bacterial growth partially controlled"}, "Pseudomonas aeruginosa": {"tested_on": "Pseudomonas aeruginosa", "experiment": "Primary bacteria screening", "set-up": "key: score: 3 = complete inhibition of growth, 2 = growth partially controlled", "details": "test compound concentration 500 μMol in tryptose broth agar, 27° C.", "protocol": "as §1, §2, §3"}, "Debaryomyces hansenii": {"tested_on": "Debaryomyces hansenii", "experiment": "Screening against yeasts", "set-up": "key: 3 = complete inhibition of growth, 2 = growth partially controlled", "details": "test compound concentration 500 μM", "protocol": "as §1, §2, §3\n(§4) A number of compounds of formula (I) were also tested in a screening against certain The test conditions are the same as described in biological example C.1. The concentration of the test compound was also 500 μmol, and the scoring system used was also the same.\nDebaryomyces hansenii (19)"}, "Rhodotorula rubra": {"tested_on": "Rhodotorula rubra", "experiment": "Screening against yeasts", "set-up": "key: 3 = complete inhibition of growth, 2 = growth partially controlled", "details": "test compound concentration 500 μmol", "protocol": "as §1, §2, §3, §4"}, "Sporobolomyces roseus": {"tested_on": "Sporobolomyces roseus", "experiment": "Screening against yeasts", "set-up": "key: 3 = complete inhibition of growth, 2 = growth partially controlled", "details": "test compound concentration 500 μmol", "protocol": "as §1, §2, §3, §4\nSporobolomyces roseus (21)"}, "Providencia rettgeri": {"tested_on": "Providencia rettgeri", "experiment": "Poison plate assay, combinations with BAC", "details": "for Calculated activity: Limpel's formula", "protocol": "Biocidal activity against bacterial/yeast growth was determined with the poison plate assay. To obtain the required concentrations of the test compound, calculated amounts of stock solutions (DMSO) were pipetted into multi-well plates. Tryptose agar (except for Rhodotorula: PDA) was added aseptically and uniform distribution was obtained by shaking. Each plate was inoculated with a bacterial/yeast suspension. After incubation at 27° C. and 70% relative humidity, for a period long enough to allow complete growth of controls, percentage activity as compared to the control was scored.\nPossible synergy was investigated using Limpel's formula (Richter, D. L., Pestic. Sci. 1987, 19: 309-315): [formula]\nwhere EC is the expected additive response, or calculated activity, X is the observed percentage control when compound A is applied alone and Y is the observed percentage control when compound B is applied alone. Synergy was considered to occur when the observed effect, or measured activity, of a combination of both compounds was greater than the corresponding EC value.\nThe table C.7 to C.8 below enumerate the measured and calculated activities of BAC and compounds 20, 42 and 40 when tested as a single test compound or as a combination against Providencia rettgeri. BAC (benzalconium chloride) is a well-bacteride and was tested at a concentration of 40 and 80 μmol. Compounds 20, 40 and 42 were tested at a concentration of 10, 20, 40, 80 and 160 μmol. When a synergistic effect was observed, the “measured” and “calculated” activity are indicated with a bold typeface."}, "[1]": {"details": "BAC 40 μmol + compound 160 μmol"}, "[2]": {"details": "BAC 80 μmol + compound 160 μmol"}, "[3]": {"details": "combination BAC 40 μmol + compound 10 μmol"}, "[4]": {"details": "combination BAC 40 μmol + compound 20 μmol"}, "[5]": {"details": "combination BAC 40 μmol + compound 40 μmol"}, "[6]": {"details": "combination BAC 40 μmol + compound 80 μmol"}, "[7]": {"details": "combination BAC 40 μmol + compound 160 μmol"}, "[8]": {"details": "combination BAC 80 μmol + compound 10 μmol"}, "[9]": {"details": "combination BAC 80 μmol + compound 20 μmol"}, "[10]": {"details": "combination BAC 80 μmol + compound 40 μmol"}, "[11]": {"details": "combination BAC 80 μmol + compound 80 μmol"}, "[12]": {"details": "combination BAC 80 μmol + compound 160 μmol"}}, "data": [{"compound": "Cl.Cl.NCCCNCCC(c1ccccc1)c1ccc(-c2ccccc2)cc1", "note": "(stereo not drawn) [Co. No. 40]", "values": [{"measurement": "E. coli (growth inhibition score)", "setting": "Escherichia coli", "result": 3}, {"measurement": "P. aeruginosa (growth inhibition score)", "setting": "Pseudomonas aeruginosa", "result": 3}, {"measurement": "Test yeast (19) Debaryomyces hansenii (score)", "setting": "Debaryomyces hansenii", "result": 3}, {"measurement": "Test yeast (20) Rhodotorula rubra (score)", "setting": "Rhodotorula rubra", "result": 3}, {"measurement": "Test yeast (21) Sporobolomyces roseus (score)", "setting": "Sporobolomyces roseus", "result": 3}, {"measurement": "Calculated activity", "setting": "Providencia rettgeri; BAC 40 μmol + compound 10 μmol", "result": 50, "unit": "%"}, {"measurement": "Calculated activity", "setting": "Providencia rettgeri; BAC 40 μmol + compound 20 μmol", "result": 50, "unit": "%"}, {"measurement": "Calculated activity", "setting": "Providencia rettgeri; BAC 40 μmol + compound 40 μmol", "result": 95, "unit": "%"}, {"measurement": "Calculated activity", "setting": "Providencia rettgeri; BAC 40 μmol + compound 80 μmol", "result": 100, "unit": "%"}, {"measurement": "Calculated activity", "setting": "Providencia rettgeri; [1]", "result": 100, "unit": "%"}, {"measurement": "Calculated activity", "setting": "Providencia rettgeri; BAC 80 μmol + compound 10 μmol", "result": 100, "unit": "%"}, {"measurement": "Calculated activity", "setting": "Providencia rettgeri; BAC 80 μmol + compound 20 μmol", "result": 100, "unit": "%"}, {"measurement": "Calculated activity", "setting": "Providencia rettgeri; BAC 80 μmol + compound 40 μmol", "result": 100, "unit": "%"}, {"measurement": "Calculated activity", "setting": "Providencia rettgeri; BAC 80 μmol + compound 80 μmol", "result": 100, "unit": "%"}, {"measurement": "Calculated activity", "setting": "Providencia rettgeri; [2]", "result": 100, "unit": "%"}, {"measurement": "Measured activity", "setting": "Providencia rettgeri; [3]", "result": 100, "unit": "%"}, {"measurement": "Measured activity", "setting": "Providencia rettgeri; [4]", "result": 100, "unit": "%"}, {"measurement": "Measured activity", "setting": "Providencia rettgeri; [5]", "result": 100, "unit": "%"}, {"measurement": "Measured activity", "setting": "Providencia rettgeri; [6]", "result": 100, "unit": "%"}, {"measurement": "Measured activity", "setting": "Providencia rettgeri; [7]", "result": 100, "unit": "%"}, {"measurement": "Measured activity", "setting": "Providencia rettgeri; [8]", "result": 100, "unit": "%"}, {"measurement": "Measured activity", "setting": "Providencia rettgeri; [9]", "result": 100, "unit": "%"}, {"measurement": "Measured activity", "setting": "Providencia rettgeri; [10]", "result": 100, "unit": "%"}, {"measurement": "Measured activity", "setting": "Providencia rettgeri; [11]", "result": 100, "unit": "%"}, {"measurement": "Measured activity", "setting": "Providencia rettgeri; [12]", "result": 100, "unit": "%"}, {"measurement": "Measured activity", "setting": "Providencia rettgeri; compound alone 10 μmol", "result": 0, "unit": "%"}, {"measurement": "Measured activity", "setting": "Providencia rettgeri; compound alone 20 μmol", "result": 0, "unit": "%"}, {"measurement": "Measured activity", "setting": "Providencia rettgeri; compound alone 40 μmol", "result": 90, "unit": "%"}, {"measurement": "Measured activity", "setting": "Providencia rettgeri; compound alone 80 μmol", "result": 100, "unit": "%"}, {"measurement": "Measured activity", "setting": "Providencia rettgeri; compound alone 160 μmol", "result": 100, "unit": "%"}]}, {"compound": "Cl.Cl.NCCCN1CCC(C(c2ccccc2)c2ccc(-c3ccccc3)cc2)CC1.O", "note": "(stereo not drawn) [Co. No. 42]", "values": [{"measurement": "E. coli (growth inhibition score)", "setting": "Escherichia coli", "result": 3}, {"measurement": "P. aeruginosa (growth inhibition score)", "setting": "Pseudomonas aeruginosa", "result": 3}, {"measurement": "Test yeast (19) Debaryomyces hansenii (score)", "setting": "Debaryomyces hansenii", "result": 3}, {"measurement": "Test yeast (20) Rhodotorula rubra (score)", "setting": "Rhodotorula rubra", "result": 3}, {"measurement": "Test yeast (21) Sporobolomyces roseus (score)", "setting": "Sporobolomyces roseus", "result": 3}, {"measurement": "Calculated activity", "setting": "Providencia rettgeri; BAC 40 μmol + compound 10 μmol", "result": 0, "unit": "%"}, {"measurement": "Calculated activity", "setting": "Providencia rettgeri; BAC 40 μmol + compound 20 μmol", "result": 0, "unit": "%"}, {"measurement": "Calculated activity", "setting": "Providencia rettgeri; BAC 40 μmol + compound 40 μmol", "result": 30, "unit": "%"}, {"measurement": "Calculated activity", "setting": "Providencia rettgeri; BAC 40 μmol + compound 80 μmol", "result": 90, "unit": "%"}, {"measurement": "Calculated activity", "setting": "Providencia rettgeri; [1]", "result": 100, "unit": "%"}, {"measurement": "Calculated activity", "setting": "Providencia rettgeri; BAC 80 μmol + compound 10 μmol", "result": 100, "unit": "%"}, {"measurement": "Calculated activity", "setting": "Providencia rettgeri; BAC 80 μmol + compound 20 μmol", "result": 100, "unit": "%"}, {"measurement": "Calculated activity", "setting": "Providencia rettgeri; BAC 80 μmol + compound 40 μmol", "result": 100, "unit": "%"}, {"measurement": "Calculated activity", "setting": "Providencia rettgeri; BAC 80 μmol + compound 80 μmol", "result": 100, "unit": "%"}, {"measurement": "Calculated activity", "setting": "Providencia rettgeri; [2]", "result": 100, "unit": "%"}, {"measurement": "Measured activity", "setting": "Providencia rettgeri; [3]", "result": 50, "unit": "%"}, {"measurement": "Measured activity", "setting": "Providencia rettgeri; [4]", "result": 50, "unit": "%"}, {"measurement": "Measured activity", "setting": "Providencia rettgeri; [5]", "result": 100, "unit": "%"}, {"measurement": "Measured activity", "setting": "Providencia rettgeri; [6]", "result": 100, "unit": "%"}, {"measurement": "Measured activity", "setting": "Providencia rettgeri; [7]", "result": 100, "unit": "%"}, {"measurement": "Measured activity", "setting": "Providencia rettgeri; [8]", "result": 100, "unit": "%"}, {"measurement": "Measured activity", "setting": "Providencia rettgeri; [9]", "result": 100, "unit": "%"}, {"measurement": "Measured activity", "setting": "Providencia rettgeri; [10]", "result": 100, "unit": "%"}, {"measurement": "Measured activity", "setting": "Providencia rettgeri; [11]", "result": 100, "unit": "%"}, {"measurement": "Measured activity", "setting": "Providencia rettgeri; [12]", "result": 100, "unit": "%"}, {"measurement": "Measured activity", "setting": "Providencia rettgeri; compound alone 10 μmol", "result": 0, "unit": "%"}, {"measurement": "Measured activity", "setting": "Providencia rettgeri; compound alone 20 μmol", "result": 0, "unit": "%"}, {"measurement": "Measured activity", "setting": "Providencia rettgeri; compound alone 40 μmol", "result": 30, "unit": "%"}, {"measurement": "Measured activity", "setting": "Providencia rettgeri; compound alone 80 μmol", "result": 90, "unit": "%"}, {"measurement": "Measured activity", "setting": "Providencia rettgeri; compound alone 160 μmol", "result": 100, "unit": "%"}]}]}
